Structures can show the parent of a compound that is named as a salt. Where two headings read alike, the source gives them in different places.
Key:
[1] = test system: NCI-H292 lung cancer cells; assay: FDA drug screening, complete media vs cholesterol-free media with simvastatin (TABLE 2); type: cell-based, human
[2] = test system: NCI-H292 lung cancer cells; assay: FDA drug screening, complete media vs cholesterol-free media without statin (TABLE 1); type: cell-based, human
[3] = complete media minus cholesterol-free media + simvastatin, […]
[4] = NCI-H292 cells, FDA drug library screen, cholesterol-free media without statin
[5] = NCI-H292 cells, FDA drug library screen, complete media
[6] = NCI-H292 cells, FDA library drug in cholesterol-free media with simvastatin 0.04 μM
[7] = NCI-H292 cells, FDA library drug in complete media
[8] = complete media vs cholesterol-free media + simvastatin (0.04 μM), >0 enhanced anti-cancer activity, about 0 neutral, <0 antagonist
[9] = Complete minus Cholesterol-free, greater than 0 enhanced anti-cancer activity, about 0 neutral, below 0 antagonist
[10] = NCI-H292 cells, cholesterol-free media with simvastatin 0.04 μM, FDA drug library screen (TABLE 2)
[11] = NCI-H292 cells, complete media, FDA drug library screen (TABLE 2)
[12] = complete media minus cholesterol-free media + simvastatin (0.04 μM), >0 enhanced anti-cancer activity, about 0 neutral, <0 antagonist
[13] = Complete minus Cholesterol-free, greater than 0 enhanced anti-cancer activity, about 0 neutral, below 0 antagonists
[14] = NCI-H292 cells in cholesterol-free media without statin
[15] = NCI-H292 cells in complete media
[16] = NCI-H292 cells, FDA drug library screen, cholesterol-free media with simvastatin 0.04 μM
[17] = NCI-H292 cells, cholesterol-free media without statin
[18] = complete vs cholesterol-free media, […]
[19] = NCI-H292 cells, cholesterol-free media with simvastatin 0.04 μM, cell growth value in FDA drug screen
[20] = NCI-H292 cells, complete media, cell growth value in FDA drug screen
[21] = complete media minus cholesterol-free media + simvastatin, >0 enhanced anti-cancer activity, about 0 neutral, <0 antagonist
[22] = complete vs cholesterol-free media, greater than 0 enhanced anti-cancer activity, about 0 neutral, below 0 antagonists
[23] = NCI-H292 cells, cholesterol-free media without statin, FDA drug library screen
[24] = NCI-H292 cells, complete media, FDA drug library screen
[25] = complete vs cholesterol-free media, >0 enhanced anti-cancer activity, about 0 neutral, <0 antagonist
[26] = Complete minus Cholesterol-free, >0 enhanced anti-cancer activity, about 0 neutral, <0 antagonist
[27] = NCI-H292 cells, drug in cholesterol-free media with simvastatin 0.04 μM
[28] = NCI-H292 cells, drug in complete media

Compound: c1ccc2c(c1)Nc1ccccc1S2 [Phenothiazine]
- Cholesterol-free media + simvastatin (0.04 μM) ([1]; NCI-H292 cells, cholesterol-free media with simvastatin 0.04 μM, […]): 1.18
- Complete Media ([1]; NCI-H292 cells, complete media, […]): 1.261
- Difference [1, 3]: 0.08
- Difference ([2]; Complete minus Cholesterol-free, […]): −0.11
- Cholesterol-free [2, 4]: 1.108
- Complete [2, 5]: 1.002

Compound: COc1ccc(CN(CCN(C)C)c2ccccn2)cc1 [Mepyramine maleate]
- Cholesterol-free media + simvastatin (0.04 μM) [1, 6]: 1.226
- Complete Media [1, 7]: 0.8399
- Difference [1, 8]: −0.39
- Difference [2, 9]: −0.17
- Cholesterol-free [2, 4]: 1.527
- Complete [2, 5]: 1.356

Compound: CCC(=O)NC[C@@H]1C[C@H]1c1cccc2c1CCO2 [Tasimelteon]
- Cholesterol-free media + simvastatin (0.04 μM) [1, 10]: 0.9943
- Complete Media [1, 11]: 0.9618
- Difference [1, 12]: −0.03
- Difference [2, 9]: −0.12
- Cholesterol-free [2, 4]: 0.9406
- Complete [2, 5]: 0.8228

Compound: O=C1NC(c2ccccc2)(c2ccccc2)C(=O)N1COP(=O)(O)O [Fosphenytoin (disodium)]
- Cholesterol-free media + simvastatin (0.04 μM) [1, 6]: 1.806
- Complete Media [1, 7]: 1.233
- Difference [1, 8]: −0.57
- Difference [2, 13]: −1.22
- Cholesterol-free [2, 14]: 2.489
- Complete [2, 15]: 1.268

Compound: CN(C)C(=O)Oc1cccc([N+](C)(C)C)c1.COS(=O)(=O)[O-] [Neostigmine (methyl sulfate)]
- Cholesterol-free media + simvastatin (0.04 μM) [1, 16]: 0.8206
- Complete Media [1, 5]: 1.308
- Difference [1, 3]: 0.49
- Cholesterol-free [2, 17]: 1.718
- Complete ([2]; NCI-H292 cells, complete media): 1.281
- Difference [2, 18]: −0.44

Compound: CN1C[C@H](CNC(=O)OCc2ccccc2)C[C@@H]2c3cccc4c3c(cn4C)C[C@H]21 [Metergoline]
- Cholesterol-free media + simvastatin (0.04 μM) [1, 19]: 0.7892
- Complete Media [1, 20]: 0.8668
- Difference [1, 21]: 0.08
- Cholesterol-free [2, 17]: 1.165
- Complete ([2]; NCI-H292 cells, complete media): 0.7326
- Difference [2, 22]: −0.43

Compound: O=C1Cc2cc(CCN3CCN(c4nsc5ccccc45)CC3)c(Cl)cc2N1 [Ziprasidone (hydrochloride monohydrate)]
- Cholesterol-free media + simvastatin (0.04 μM) [1, 19]: 0.5734
- Complete Media [1, 20]: 0.6228
- Difference [1, 21]: 0.05
- Cholesterol-free [2, 23]: 0.5848
- Complete [2, 24]: 0.8552
- Difference [2, 25]: 0.27

Compound: Cc1c(NC(=O)c2cccnc2)c(=O)n(-c2ccccc2)n1C [Nifenazone]
- Cholesterol-free media + simvastatin (0.04 μM) [1, 19]: 0.9965
- Complete Media [1, 20]: 1.032
- Difference [1, 21]: 0.04
- Difference [2, 13]: −0.66
- Cholesterol-free [2, 14]: 1.466
- Complete [2, 15]: 0.8088

Compound: COc1cc(/C=C/C(=O)O)ccc1O [Ferulic acid]
- Cholesterol-free media + simvastatin (0.04 μM) [1, 6]: 1.055
- Complete Media [1, 7]: 0.7118
- Difference [1, 8]: −0.34
- Difference [2, 26]: −0.23
- Cholesterol-free [2, 17]: 1.087
- Complete ([2]; NCI-H292 cells, complete media): 0.8516

Compound: Bleomycin (hydrochloride)
- Cholesterol-free media + simvastatin (0.04 μM) [1, 16]: 0.184
- Complete Media [1, 5]: 0.1023
- Difference ([1]; complete media vs cholesterol-free media + simvastatin (0.04 μM), […]): −0.08
- Cholesterol-free [2, 23]: 0.4328
- Complete [2, 24]: 0.5195
- Difference [2, 18]: 0.09

Compound: Atazanavir (sulfate)
- Cholesterol-free media + simvastatin (0.04 μM) [1, 16]: 1.26
- Complete Media [1, 5]: 1.128
- Difference [1, 8]: −0.13
- Difference [2, 9]: −0.18
- Cholesterol-free [2, 4]: 1.207
- Complete [2, 5]: 1.022

Compound: CC[C@H]1CN2CCc3cc(OC)c(OC)cc3[C@@H]2C[C@@H]1C[C@H]1NCCc2cc(OC)c(OC)cc21 [Emetine (dihydrochloride hydrate)]
- Cholesterol-free media + simvastatin (0.04 μM) [1]: 0.05048
- Complete Media [1]: 0.03214
- Difference [1]: −0.02
- Cholesterol-free [2]: 0.02305
- Complete [2]: 0.04288
- Difference [2]: 0.02

Compound: Nc1nc2[nH]cc(CCc3ccc(C(=O)N[C@@H](CCC(=O)O)C(=O)O)cc3)c2c(=O)[nH]1 [Pemetrexed]
- Cholesterol-free media + simvastatin (0.04 μM) [1, 10]: 0.2196
- Complete Media [1, 11]: 0.2004
- Difference [1, 12]: −0.02
- Difference [2, 26]: −0.01
- Cholesterol-free [2, 23]: 0.1659
- Complete [2, 24]: 0.1596

Compound: CCOC(=O)COc1ccc2c(=O)cc(-c3ccccc3)oc2c1 [Efloxate]
- Cholesterol-free media + simvastatin (0.04 μM) [1, 16]: 1.124
- Complete Media [1, 5]: 0.9754
- Difference [1, 8]: −0.15
- Cholesterol-free [2, 17]: 1.349
- Complete ([2]; NCI-H292 cells, complete media): 0.929
- Difference [2, 22]: −0.42

Compound: CN(C)CCOC(C)(c1ccccc1)c1ccc(Cl)cc1 (centres unmarked) [Chlorphenoxamine]
- Cholesterol-free media + simvastatin (0.04 μM) [1, 6]: 1.703
- Complete Media [1, 7]: 1.16
- Difference [1, 8]: −0.54
- Cholesterol-free [2, 17]: 1.303
- Complete ([2]; NCI-H292 cells, complete media): 0.9903
- Difference [2, 22]: −0.31

Compound: Bretylium (tosylate)
- Complete Media [1, 7]: 0.8163
- Difference [1, 8]: −0.40
- Cholesterol-free [2, 23]: 0.5154
- Complete [2, 24]: 0.751
- Difference [2, 25]: 0.24

Compound: CC(C(=O)O)c1ccc(CC2CCCC2=O)cc1 (centres unmarked) [Loxoprofen (sodium)]
- Cholesterol-free media + simvastatin (0.04 μM) [1, 16]: 1.087
- Complete Media [1, 5]: 1.62
- Difference [1, 21]: 0.53
- Difference [2, 26]: −0.22
- Cholesterol-free [2, 17]: 0.9775
- Complete ([2]; NCI-H292 cells, complete media): 0.7554

Compound: CC[C@@H]1CN(C(=O)NCC(F)(F)F)C[C@@H]1c1cnc2cnc3[nH]ccc3n12 [Upadacitinib]
- Cholesterol-free media + simvastatin (0.04 μM) [1, 27]: 0.7425
- Complete Media [1, 28]: 0.5732
- Difference [1, 8]: −0.17
- Difference [2, 13]: −0.51
- Cholesterol-free [2, 14]: 1.213
- Complete [2, 15]: 0.7003

Compound: CCN(CC)CCOC(=O)C(c1ccccc1)c1ccccc1 [Adiphenine (hydrochloride)]
- Cholesterol-free media + simvastatin (0.04 μM) [1, 6]: 1.255
- Complete Media [1, 7]: 0.9527
- Difference [1, 8]: −0.30
- Difference [2, 26]: −0.20
- Cholesterol-free [2, 17]: 1.088
- Complete ([2]; NCI-H292 cells, complete media): 0.8864

Compound: COC(=O)[C@H](c1ccccc1Cl)N1CCc2sccc2C1 [Clopidogrel]
- Cholesterol-free media + simvastatin (0.04 μM) [1, 10]: 1.038
- Complete Media [1, 11]: 0.969
- Difference [1, 12]: −0.07
- Difference [2, 26]: −0.02
- Cholesterol-free [2, 23]: 0.9805
- Complete [2, 24]: 0.958

Compound: Ribociclib succinate hydrate
- Cholesterol-free media + simvastatin (0.04 μM) [1, 19]: 0.4954
- Complete Media [1, 20]: 0.6321
- Difference [1, 21]: 0.14
- Difference [2, 26]: −0.21
- Cholesterol-free [2, 17]: 0.9345
- Complete ([2]; NCI-H292 cells, complete media): 0.7226

Compound: CC(=O)N1C[C@H](O)C[C@H]1C(=O)O [Oxaceprol]
- Cholesterol-free media + simvastatin (0.04 μM) [1, 10]: 0.8786
- Complete Media [1, 11]: 0.8552
- Difference [1, 12]: −0.02
- Difference [2, 26]: −0.27
- Cholesterol-free [2, 17]: 0.9566
- Complete ([2]; NCI-H292 cells, complete media): 0.6838

Compound: NCCc1c[nH]c2ccc(O)cc12 [Serotonin hydrochloride]
- Cholesterol-free media + simvastatin (0.04 μM) [1, 27]: 1.379
- Complete Media [1, 28]: 1.18
- Difference [1, 8]: −0.20
- Difference [2, 13]: −0.64
- Cholesterol-free [2, 14]: 1.639
- Complete [2, 15]: 1.003

— patent US20250144067A1, “PERSONALIZED STARVATION THERAPY FOR CANCER” (Faeth Therapeutics, Inc., priority 2021, published 2025)
